Consider two compounds from patent US7238724B2, “Pharmaceutical compositions as inhibitors of dipeptidyl peptidase-IV (DPP-IV)” (Abbott Laboratories, priority 2004, dated 2007).

One experiment deals with DPP8 (Homo sapiens, UniProt Q6V1X1). As to the kind of experiment: DPP8 inhibitory constant (Table 1 selectivity comparison). The format is biochemical.
Another experiment deals with DPP9 (Homo sapiens, UniProt Q86TI2). Description: DPP9 inhibitory constant (Table 1 selectivity comparison). In kind it is biochemical.
Experiment [1] concerns Normal mice (C57/BL6 strain). Description: acute oral glucose tolerance test (OGTT). The format is in vivo. The settings on record: OGTT 5 gm/kg. Here is the method: Compounds of the present invention were evaluated for their ability to treat diabetes using an acute oral glucose tolerance test (OGTT) as follows: Normal mice (C57/BL6 strain), 6-7 weeks of age, on a normal chow diet, were fasted for 3 hrs. A baseline tail snip blood sample was taken to measure glucose levels (Precision PCx glucose meter, Abbott Laboratories, Abbott Park, Ill.) at the beginning of the experiment. Immediately after this baseline sample, compounds of the present invention (or placebo) were dosed orally. One hour later, a tail snip blood glucose measurement was taken, immediately followed by an oral glucose dose (OGTT, 5 gm/kg). The glucose excursion was followed for 2 hours with samples taken at 10, 20, 30, 60 and 120 minutes post OGTT. These timed glucose data were used to construct a glucose excursion curve, from which an area under the glucose curve (AUGC) was determined. The data reported in Table 2 is the baseline-adjusted area under the glucose curve (δAUGC) for drug and control groups.

Sequence of DPP8 (Q6V1X1 whole entry, species assumed): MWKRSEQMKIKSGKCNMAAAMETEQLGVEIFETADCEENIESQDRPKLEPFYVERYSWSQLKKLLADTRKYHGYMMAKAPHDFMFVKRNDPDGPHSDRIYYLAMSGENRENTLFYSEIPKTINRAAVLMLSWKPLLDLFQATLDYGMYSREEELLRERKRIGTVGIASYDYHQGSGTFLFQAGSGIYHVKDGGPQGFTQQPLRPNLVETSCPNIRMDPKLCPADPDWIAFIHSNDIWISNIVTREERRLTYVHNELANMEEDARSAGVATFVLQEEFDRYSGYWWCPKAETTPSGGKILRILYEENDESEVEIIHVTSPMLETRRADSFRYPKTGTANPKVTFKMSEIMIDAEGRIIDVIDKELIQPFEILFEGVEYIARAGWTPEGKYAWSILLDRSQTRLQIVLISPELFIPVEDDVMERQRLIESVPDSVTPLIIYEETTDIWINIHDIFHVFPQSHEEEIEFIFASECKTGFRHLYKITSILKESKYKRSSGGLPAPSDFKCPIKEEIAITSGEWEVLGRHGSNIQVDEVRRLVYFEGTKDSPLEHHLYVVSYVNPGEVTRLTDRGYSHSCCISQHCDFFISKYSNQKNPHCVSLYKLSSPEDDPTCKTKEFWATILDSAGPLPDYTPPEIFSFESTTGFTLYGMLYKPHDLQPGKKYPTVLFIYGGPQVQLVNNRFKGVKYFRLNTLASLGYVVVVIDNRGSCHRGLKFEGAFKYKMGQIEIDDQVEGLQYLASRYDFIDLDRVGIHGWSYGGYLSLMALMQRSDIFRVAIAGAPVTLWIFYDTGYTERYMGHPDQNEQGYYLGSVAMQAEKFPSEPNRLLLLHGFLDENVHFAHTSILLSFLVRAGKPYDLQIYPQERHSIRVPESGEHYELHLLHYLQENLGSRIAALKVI
Sequence of DPP9 (Q86TI2 whole entry, species assumed): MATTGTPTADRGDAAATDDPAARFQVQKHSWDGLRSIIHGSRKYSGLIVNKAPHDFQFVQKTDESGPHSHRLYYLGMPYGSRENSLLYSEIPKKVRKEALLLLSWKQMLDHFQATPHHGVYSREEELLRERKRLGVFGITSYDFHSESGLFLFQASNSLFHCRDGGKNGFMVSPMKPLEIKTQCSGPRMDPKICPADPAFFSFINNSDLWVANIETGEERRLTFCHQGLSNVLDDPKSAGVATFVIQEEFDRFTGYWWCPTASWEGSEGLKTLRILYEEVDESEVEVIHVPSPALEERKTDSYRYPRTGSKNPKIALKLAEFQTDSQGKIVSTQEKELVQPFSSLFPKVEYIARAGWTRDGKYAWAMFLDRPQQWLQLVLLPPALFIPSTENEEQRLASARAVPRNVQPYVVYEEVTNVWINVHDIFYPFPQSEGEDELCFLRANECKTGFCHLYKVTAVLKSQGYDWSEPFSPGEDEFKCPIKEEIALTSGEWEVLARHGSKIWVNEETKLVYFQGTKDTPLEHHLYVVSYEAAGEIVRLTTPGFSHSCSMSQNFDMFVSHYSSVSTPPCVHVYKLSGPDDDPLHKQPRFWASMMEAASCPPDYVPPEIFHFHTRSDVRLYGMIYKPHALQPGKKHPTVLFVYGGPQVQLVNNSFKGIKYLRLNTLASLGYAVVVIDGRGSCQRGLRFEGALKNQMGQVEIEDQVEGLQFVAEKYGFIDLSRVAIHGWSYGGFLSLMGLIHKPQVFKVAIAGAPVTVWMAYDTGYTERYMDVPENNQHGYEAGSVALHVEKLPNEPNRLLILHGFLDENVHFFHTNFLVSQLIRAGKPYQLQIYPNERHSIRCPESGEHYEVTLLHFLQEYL

As for `CC(C)(C)NCC(=O)N1[C@H](C#N)CC[C@@H]1C#N` [Compound 9, (2R,5S)-1-[(tert-butylamino)acetyl]pyrrolidine-2,5-dicarbonitrile], the Ki at DPP8 and at DPP9 was over 100 µM each time.
With `C#C[C@H]1CC[C@@H](C#N)N1C(=O)CN[C@H]1CC[C@H](Oc2ccc(C#N)cn2)CC1` (relative stereo) [Compound 3, (2S,5R)-5-ethynyl-1-{N-(4-trans(5-cyano-pyridin-2-yloxy)cyclohexyl)glycyl}pyrrolidine-2-carbonitrile], the Ki at DPP8 was over 30 µM. The “δ AUGC, change versus Control” value in experiment [1] (1.0 mg/kg dosed orally) is −39%; in experiment [1] (3.0 mg/kg dosed orally), −54%.

As usually defined, the Ki is a dissociation constant, usually derived from enzyme kinetics or from competition with a known ligand. Low readings indicate tighter binding, high ones weaker binding.
